Reference: patent US9757368B2, “Anti-inflammatory agents” (Resverlogix Corp., priority 2009, dated 2017)

What follows are compounds tested on hVCAM-1 mRNA (assay: Quantification of hVCAM-1 mRNA in TNF-α-stimulated HUV-EC-C cells (real-time PCR)). Details: 1 h pretreatment, TNF-α 10 ng/mL, 24 h, VCAM-1 mRNA normalised to hCyclophilin, compound ≤10 μM.
Assay type: cell-based, human
Parameters: key: Active: an active compound is one that causes a ≧20% inhibition in VCAM-1 mRNA at a concentration less than or equal to 10 μM
Description: In this example, hVCAM-1 mRNA in tissue culture cells was quantitated to measure the transcriptional inhibition of hVCAM when treated with a compound of the invention.
A human umbilical vein endothelial cell line (HUV-EC-C) was plated in a 96-well plate (5.0×10^3 cells/well) in 100 μL EGM complete media and incubated for 24 h prior to the addition of the compound of interest. The cells were pretreated for 1 h with the test compound in DMSO prior to stimulation with tumor necrosis factor-α (10 ng/mL). The cells were incubated for an additional 24 h before harvest. At time of harvest, the cells were rinsed in 200 μL PBS, and cell lysis solution (70 μL) was then added the cells for 10 min. mRNA was then prepared using the “mRNA Catcher PLUS plate” (Invitrogen), according to the protocol supplied.
(§1) The eluted mRNA was then used in a one-step quantitative real-time PCR reaction, using components of the UltraSense kit together with Applied Biosystems primer-probe mixes. 10 μL of template was amplified with 1.75 μL of hVCAM-1 primer-probe, and 1 μL of hCyclophilin primer probe, and the reaction was carried out in multiplex. Real-time PCR data was analyzed, normalizing the Ct values for hVCAM-1 to hCyclophilin, prior to determining the fold induction of each unknown sample, relative to the control.
`COc1cc(OCCN)cc2nc(-c3cc(C)c(O)c(C)c3)[nH]c(=O)c12` [Example 3, 7-(2-amino-ethoxy)-2-(4-hydroxy-3,5-dimethyl-phenyl)-5-methoxy-3H-quinazolin-4-one] was tested, and the “Inhibition of VCAM-1 expression” value was “Active”. `COCCOc1cc(OC)c2c(=O)[nH]c(-c3cc(C)c(O)c(C)c3)nc2c1` [Example 4, 2-(4-hydroxy-3,5-dimethyl-phenyl)-5-methoxy-7-(2-methoxy-ethoxy)-3H-quinazolin-4-one] was tested, and the “Inhibition of VCAM-1 expression” value was “Active”. `COc1cc(OCCOCc2ccccc2)cc2nc(-c3cc(C)c(O)c(C)c3)[nH]c(=O)c12` [Example 5, 7-(2-benzyloxy-ethoxy)-2-(4-hydroxy-3,5-dimethyl-phenyl)-5-methoxy-3H-quinazolin-4-one] was tested, and the “Inhibition of VCAM-1 expression” value was “Active”.

These compounds were tested on hIL-6 mRNA (assay: Quantification of hIL-6 mRNA in LPS-stimulated U937 macrophages (real-time PCR)). Details: U937 cells differentiated with PMA, 1 h pretreatment, LPS 1 μg/mL, 3 h; IL-6 mRNA normalised to hCyclophilin; compound ≤10 μM.
Assay type: cell-based, human
Parameters: key: Active: an active compound is one that causes a ≧20% inhibition in IL-6 mRNA at a concentration less than or equal to 10 μM
Description: In this example, hIL-6 mRNA in tissue culture cells was quantitated to measure the transcriptional inhibition of hIL-6 when treated with a compound of the invention.
A human leukemic monocytic lymphoma cell line (U937) was plated (3.2×10^5 cells per well) in a 96-well plate in 100 μL RPMI 1640+10% FBS, and differentiated into macrophages with PMA (60 ng/mL) for 3 days prior to the addition of the compound of interest. The cells were pretreated for 1 h with the test compound in DMSO prior to stimulation with lipopolysaccharide from Escherichia coli at 1 μg/mL. The cells were incubated for 3 h before harvest. At the time of harvest, cells were rinsed in 200 μL PBS. Cell lysis solution (70 μL) was added the cells for 10 min, and mRNA was then prepared using the “mRNA Catcher PLUS plate” (Invitrogen), according to the protocol supplied.
as §1, with “mRNA isolated” for “mRNA”, “of IL-6” for “of hVCAM-1”, “for hIL-6” for “for hVCAM-1”
With `COc1cc(OCCN(C)C)c2c(=O)[nH]c(-c3cc(C)c(O)c(C)c3)nc2c1` [Example 1, 5-(2-dimethylamino-ethoxy)-2(4-hydroxy-3,5-dimethylphenyl)-7-methoxy-3H-quinazolin-4-one] the “Inhibition of IL-6 expression” value was “Active”. For `COCCOc1cc(OC)cc2nc(-c3cc(C)c(O)c(C)c3)[nH]c(=O)c12` [Example 2, 2-(4-hydroxy-3,5-dimethyl-phenyl)-7-methoxy-5-(2-methoxy-ethoxy)-3H-quinazolin-4-one], the “Inhibition of IL-6 expression” value was “Active”. With `COc1cc(OCCN)cc2nc(-c3cc(C)c(O)c(C)c3)[nH]c(=O)c12` [Example 3, 7-(2-amino-ethoxy)-2-(4-hydroxy-3,5-dimethyl-phenyl)-5-methoxy-3H-quinazolin-4-one] the “Inhibition of IL-6 expression” value was “Active”. `COCCOc1cc(OC)c2c(=O)[nH]c(-c3cc(C)c(O)c(C)c3)nc2c1` [Example 4, 2-(4-hydroxy-3,5-dimethyl-phenyl)-5-methoxy-7-(2-methoxy-ethoxy)-3H-quinazolin-4-one] was tested, and the “Inhibition of IL-6 expression” value was “Active”. For `COc1cc(OCCOCc2ccccc2)cc2nc(-c3cc(C)c(O)c(C)c3)[nH]c(=O)c12` [Example 5, 7-(2-benzyloxy-ethoxy)-2-(4-hydroxy-3,5-dimethyl-phenyl)-5-methoxy-3H-quinazolin-4-one], the “Inhibition of IL-6 expression” value was “Active”. In the case of `COc1cc(OCCOCc2cccnc2)cc2nc(-c3cc(C)c(O)c(C)c3)[nH]c(=O)c12` [Example 6, 2-(4-hydroxy-3,5-dimethylphenyl)-5-methoxy-7-[2-(pyridin-3-ylmethoxy)ethoxy]-3H-quinazolin-4-one], the “Inhibition of IL-6 expression” value is reported as “Active”. For `Cc1cc(-c2nc3ccc(Nc4ccncc4)cc3c(=O)[nH]2)cc(C)c1O` [Example 8, 2-(4-hydroxy-3,5-dimethyl-phenyl)-6-(pyridin-4-ylamino)-3H-quinazolin-4-one], the “Inhibition of IL-6 expression” value was “Active”. With `Cc1cc(-c2nc3ccc(CNS(C)(=O)=O)cc3c(=O)[nH]2)cc(C)c1O` [Example 11, N-((2-(4-hydroxy-3,5-dimethylphenyl)-4-oxo-3,4-dihydroquinazolin-6-yl)methyl)methanesulfonamide] the “Inhibition of IL-6 expression” value was “Active”. With `Cc1cc(-c2nc3ccc(N4CCOCC4)cc3c(=O)[nH]2)cc(C)c1OCCO` [Example 12, 2-(4-(2-hydroxyethoxy)-3,5-dimethylphenyl)-6-morpholinoquinazolin-4(3H)-one] the “Inhibition of IL-6 expression” value was “Active”. For `COc1cc(OC)c2c(=O)[nH]c(-c3cc(C)c(OCCOCc4ccccc4)c(C)c3)nc2n1` [Example 13, 2-(4-(2-(benzyloxy)ethoxy)-3,5-dimethylphenyl)-5,7-dimethoxypyrido[2,3-d]pyrimidin-4(3H)-one], the “Inhibition of IL-6 expression” value was “Active”. With `Cc1cc(C)c2c(=O)[nH]c(-c3cc(C)c(OCCO)c(C)c3)nc2n1` [Example 14, 2-(4-(2-hydroxyethoxy)-3,5-dimethylphenyl)-5,7-dimethylpyrido[2,3-d]pyrimidin-4(3H)-one] the “Inhibition of IL-6 expression” value was “Active”. With `Cc1cc(-c2nc3cc(OC(C)C)cc(OC(C)C)c3c(=O)[nH]2)cc(C)c1OCCO` [Example 16, 2-[4-(2-hydroxy-ethoxy)-3,5-dimethyl-phenyl]-5,7-diisopropoxy-3H-quinazolin-4-one] the “Inhibition of IL-6 expression” value was “Active”. `COc1cc2nc(-c3cc(C)c(OCCO)c(C)c3)[nH]c(=O)c2c(OC)c1CN1CCOCC1.Cl` [Example 19, 2-[4-(2-hydroxy-ethoxy)-3,5-dimethylphenyl]-5,7-dimethoxy-6-morpholin-4-ylmethyl-3H-quinazolin-4-one hydrochloride] was tested, and the “Inhibition of IL-6 expression” value was “Active”. With `COc1cc(OCCOCc2ccccc2)cc2nc(-c3ccc4oc(CO)cc4c3)[nH]c(=O)c12` [Example 24, 7-(2-benzyloxy-ethoxy)-2-(2-hydroxymethyl-benzofuran-5-yl)-5-methoxy-3H-quinazolin-4-one] the “Inhibition of IL-6 expression” value was “Active”. With `COc1cc(OC)c2c(=O)[nH]c(-c3cc(C)c(OCC(=O)NCc4ccccc4)c(C)c3)nc2c1` [Example 27, N-benzyl-2-[4-(5,7-dimethoxy-4-oxo-3,4-dihydroquinazolin-2-yl)-2,6-dimethylphenoxy]acetamide] the “Inhibition of IL-6 expression” value was “Active”. For `COc1cc(OC)c2c(=O)[nH]c(-c3cc(C)c(OCCNC=O)c(C)c3)cc2c1` [Example 41, N-{2-[4-(6,8-dimethoxy-1-oxo-1,2-dihydro-isoquinolin-3-yl)-2,6-dimethyl-phenoxy]-ethyl}-formamide], the “Inhibition of IL-6 expression” value was “Active”. With `COc1cc(OC)c2c(=O)[nH]c(-c3cc(C)c(OCCNS(=O)(=O)C(C)C)c(C)c3)nc2c1` [Example 43, N-(2-(4-(5,7-dimethoxy-4-oxo-3,4-dihydroquinazolin-2-yl)-2,6-dimethylphenoxy)ethyl)propane-2-sulfonamide] the “Inhibition of IL-6 expression” value was “Active”. With `COc1cc(OC)c2c(=O)[nH]c(-c3ccc(OCCNC(C)=O)c(C)c3)nc2c1` [Example 45, N-(2-(4-(5,7-dimethoxy-4-oxo-3,4-dihydroquinazolin-2-yl)-2-methylphenoxy)ethyl)acetamide] the “Inhibition of IL-6 expression” value was “Active”. `COc1cc(OC)c2c(=O)[nH]c(-c3cc(C)c(OCCN(C)C)c(C)c3)nc2c1` [Example 46, 2-(4-(2-(dimethylamino)ethoxy)-3,5-dimethylphenyl)-5,7-dimethoxyquinazolin-4(3H)-one] was tested, and the “Inhibition of IL-6 expression” value was “Active”. For `COc1cc(OC)c2c(=O)[nH]c(-c3cc(C)c(OCCNC=O)c(C)c3)nc2c1` [Example 48, N-(2-(4-(5,7-dimethoxy-4-oxo-3,4-dihydroquinazolin-2-yl)-2,6-dimethylphenoxy)ethyl)formamide], the “Inhibition of IL-6 expression” value was “Active”. In the case of `COc1cc(OC)c2c(=O)[nH]c(-c3cc(C)c(OCCN(C)C=O)c(C)c3)nc2c1` [Example 49, N-(2-(4-(5,7-dimethoxy-4-oxo-3,4-dihydroquinazolin-2-yl)-2,6-dimethylphenoxy)ethyl)-N-methylformamide], the “Inhibition of IL-6 expression” value is reported as “Active”. With `COc1cc(OC)c2c(=O)[nH]c(-c3cc(C)c(OCCNS(=O)(=O)N(C)C)c(C)c3)nc2c1` [Example 50, N-(2-(4-(5,7-dimethoxy-4-oxo-3,4-dihydroquinazolin-2-yl)-2,6-dimethylphenoxy)ethyl)dimethylamino-N-sulfonamide] the “Inhibition of IL-6 expression” value was “Active”. `COc1cc(OC)c2c(=O)[nH]c(-c3cc(C)c(OCCNc4cc(C)on4)c(C)c3)nc2c1` [Example 52, 2-(3,5-dimethyl-4-(2-(5-methylisoxazol-3-ylamino)ethoxy)phenyl)-5,7-dimethoxyquinazolin-4(3H)-one] was tested, and the “Inhibition of IL-6 expression” value was “Active”. With `COc1cc(OC)c2c(=O)[nH]c(-c3cc(C)c(OCCNc4ncccn4)c(C)c3)nc2c1` [Example 53, 2-(3,5-dimethyl-4-(2-(pyrimidin-2-ylamino)ethoxy)phenyl)-5,7-dimethoxyquinazolin-4(3H)-one] the “Inhibition of IL-6 expression” value was “Active”. `COc1cc(OC)c2c(=O)[nH]c(-c3cc(C)c(OCCNc4ccon4)c(C)c3)nc2c1` [Example 54, 2-(4-(2-(isoxazol-3-ylamino)ethoxy)-3,5-dimethylphenyl)-5,7-dimethoxyquinazolin-4(3H)-one] was tested, and the “Inhibition of IL-6 expression” value was “Active”. In the case of `COc1cc(OC)c2c(=O)[nH]c(-c3cc(C)c(OCCNc4nc(OC)cc(OC)n4)c(C)c3)nc2c1` [Example 55, 2-(4-(2-(4,6-dimethoxypyrimidin-2-ylamino)ethoxy)-3,5-dimethylphenyl)-5,7-dimethoxyquinazolin-4(3H)-one], the “Inhibition of IL-6 expression” value is reported as “Active”. `COc1cc(OC)c2c(=O)[nH]c(-c3cc(OC)c(CCCO)c(OC)c3)nc2c1` [Example 56, 2-[4-(3-hydroxy-propyl)-3,5-dimethoxyphenyl]-5,7-dimethoxy-3H-quinazolin-4-one] was tested, and the “Inhibition of IL-6 expression” value was “Active”. `COc1cc(OC)c2c(=O)[nH]c(-c3ccc(CCCO)c(OC)c3)nc2c1` [Example 57, 2-[4-(3-hydroxy-propyl)-3-methoxy-phenyl]-5,7-dimethoxy-3H-quinazolin-4-one] was tested, and the “Inhibition of IL-6 expression” value was “Active”.
